Where two headings read alike, the source gives them in different places.
What was measured:
[1] = molecular target: human recombinant 5-HT2A receptor (Homo sapiens (Human), UniProt P28223); test: biochemical; assay type: binding; details: [3H]-Ketanserin 3 nmol/L, Jump-In HEK cell membrane
Experimental: Test Example 1: 5-HT2A Receptor Binding Inhibition Test
(Each Experimental Condition)
Cell membrane: 15 μg of Jump-In HEK cell membrane (expressing human recombinant 5-HT2A receptor) per well
Assay buffer: Tris-HCl 50 mmol/L (pH 7.4) containing NaCl 120 mmol/L, MgCl2·6H2O 1 mmol/L, KCl 5 mmol/L, 0.1% BSA and CaCl2 2 mmol/L
Radioactive ligand: [^3H]-Ketanserin with a final concentration of 3 nmol/L
(§1) Non-specific ligand: Serotonin HCl with a final concentration of 500 μmol/L
(§2) The Kd value was calculated when the lot of cell membrane was changed. […] The radioactive ligand solution was serially diluted from 16 nM at a 2-fold ratio and the count was confirmed with a liquid scintillator. […] After that, filtration was performed with Cell harvester (PerkinElmer). The radioactive ligand solution was dispensed into an empty well of the GF/B UniFilter plate at 10 μL/well. […] The GF/B UniFilter plate was allowed to stand overnight at room temperature. […] The Saturation curve was drawn from the measured value, and the Kd value was calculated from the slope of the Scatchard Plot.
(§3) (Binding Test of the Compound According to the Present Invention)
(§4) After that, filtration was performed with Cell harvester (PerkinElmer).

[2] = molecular target: human recombinant 5-HT2C receptor (Homo sapiens (Human), UniProt P28335); test: biochemical; assay type: binding
human recombinant 5-HT2C receptor, sequence (P28335 whole entry, looked up): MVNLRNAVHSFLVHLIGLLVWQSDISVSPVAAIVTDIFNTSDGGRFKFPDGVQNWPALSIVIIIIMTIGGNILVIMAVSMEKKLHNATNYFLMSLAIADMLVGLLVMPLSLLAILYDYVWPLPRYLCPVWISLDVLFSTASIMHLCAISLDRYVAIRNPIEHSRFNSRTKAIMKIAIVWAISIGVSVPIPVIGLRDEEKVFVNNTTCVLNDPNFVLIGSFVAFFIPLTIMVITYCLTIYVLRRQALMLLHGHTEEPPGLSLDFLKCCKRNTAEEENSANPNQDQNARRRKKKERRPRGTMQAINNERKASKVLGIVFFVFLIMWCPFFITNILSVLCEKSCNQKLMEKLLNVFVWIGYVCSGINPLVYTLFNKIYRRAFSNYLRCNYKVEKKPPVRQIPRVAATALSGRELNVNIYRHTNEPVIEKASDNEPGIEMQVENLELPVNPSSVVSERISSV
Experimental: Test Example 2: 5-HT2C Receptor Binding Inhibition Test
(Each experimental condition)
Cell membrane: 0.5 μg of Jump-In HEK cell membrane (expressing human recombinant 5-HT2C receptor) per well
Assay buffer: Tris-HCl 50 mmol/L (pH 7.4) containing NaCl 120 mmol/L, MgCl2·6H2O 1 mmol/L, KCl 5 mmol/L, 0.1% BSA and CaCl2) 2 mmol/L
Radioactive ligand: [^3H]-Mesulergine with a final concentration of 1 nmol/L
as §1, §2, §3, §4

hERG channel (IKr) = hERG channel (IKr) (Homo sapiens (Human), UniProt Q12809); test: hERG test (automated whole cell patch clamp, IKr); assay type: cell-based; details: CHO cells expressing hERG channel, pH 7.4, compound concentration of 3 μmol/L, read-out: hERG inhibition rate (tail peak current IKr)
hERG channel (IKr), sequence (Q12809 whole entry): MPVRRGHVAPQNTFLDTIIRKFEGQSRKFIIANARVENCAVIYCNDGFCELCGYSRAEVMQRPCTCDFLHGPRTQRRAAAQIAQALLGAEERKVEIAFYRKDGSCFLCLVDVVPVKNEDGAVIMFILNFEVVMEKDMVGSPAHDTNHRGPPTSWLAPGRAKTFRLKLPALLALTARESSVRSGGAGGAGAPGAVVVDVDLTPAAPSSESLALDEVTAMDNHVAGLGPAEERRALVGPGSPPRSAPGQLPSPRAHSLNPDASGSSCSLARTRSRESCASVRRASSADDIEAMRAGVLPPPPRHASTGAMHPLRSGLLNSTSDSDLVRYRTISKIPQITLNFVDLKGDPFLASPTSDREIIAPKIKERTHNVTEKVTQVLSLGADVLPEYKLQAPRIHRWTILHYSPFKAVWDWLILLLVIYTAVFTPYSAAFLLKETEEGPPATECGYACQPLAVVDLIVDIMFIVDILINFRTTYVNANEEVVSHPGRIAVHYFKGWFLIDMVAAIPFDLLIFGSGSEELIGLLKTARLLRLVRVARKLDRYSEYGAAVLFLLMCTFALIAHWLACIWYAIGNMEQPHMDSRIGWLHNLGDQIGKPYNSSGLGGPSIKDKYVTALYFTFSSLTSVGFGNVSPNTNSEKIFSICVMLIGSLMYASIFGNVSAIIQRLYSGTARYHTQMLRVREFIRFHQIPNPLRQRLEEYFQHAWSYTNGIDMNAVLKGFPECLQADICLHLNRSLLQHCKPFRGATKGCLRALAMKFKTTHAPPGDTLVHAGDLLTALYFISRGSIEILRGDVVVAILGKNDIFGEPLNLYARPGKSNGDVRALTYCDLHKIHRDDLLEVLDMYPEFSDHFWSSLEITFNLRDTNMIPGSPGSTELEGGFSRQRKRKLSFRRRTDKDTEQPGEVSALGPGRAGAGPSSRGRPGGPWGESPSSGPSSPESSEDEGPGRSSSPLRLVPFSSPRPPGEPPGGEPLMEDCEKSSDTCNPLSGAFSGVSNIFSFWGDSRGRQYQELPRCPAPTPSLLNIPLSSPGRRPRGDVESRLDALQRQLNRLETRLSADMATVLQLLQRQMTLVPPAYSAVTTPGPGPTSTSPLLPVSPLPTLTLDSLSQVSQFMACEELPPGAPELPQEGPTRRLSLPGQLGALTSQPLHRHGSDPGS
Description: Test Example 3: hERG Test
For the purpose of assessing risk of an electrocardiogram QT interval prolongation of the compound according to the present invention, effects of the compound according to the present invention on delayed rectifier K^+ current (IKr), which plays an important role in the ventricular repolarization process, was studied using CHO cells expressing human ether-a-go-go related gene (hERG) channel.
After a cell was retained at a membrane potential of −80 mV by whole cell patch clamp method using an automated patch clamp system (QPatch; Sophion Bioscience A/S) and gave a leak potential of −50 mV, IKr induced by depolarization pulse stimulation at +20 mV for 2 seconds, and further, repolarization pulse stimulation at −50 mV for 2 seconds, was recorded. A vehicle, which was the 0.1% dimethyl sulfoxide solution in extracellular solution (NaCl: 145 mmol/L, KCl: 4 mmol/L, CaCl2: 2 mmol/L, MgCl2: 1 mmol/L, glucose:10 mmol/L, HEPES (4-(2-hydroxyethyl)-1-piperazineethanesulfonic acid): 10 mmol/L, pH7.4), or the compound according to the present invention had been dissolved at an objective concentration in the extracellular solution, each of the extracellular solution was applied to the cell at room temperature for 15 minutes or more. From the recording IKr, an absolute value of the tail peak current was measured based on the current value at the resting membrane potential using analysis software (QPatch Assay software; Sophion Bioscience A/S). The % inhibition of the tail peak current after application of the compound according to the present invention relative to the tail peak current after application of the vehicle was calculated, and further correction was performed using the inhibition rate result of the negative control to assess influence of the compound according to the present invention on IKr.

[3] = read-out: human serotonin 5-HT2A receptor binding activity, Ki
[4] = [3H]-Mesulergine 1 nmol/L, Jump-In HEK cell membrane, read-out: human serotonin 5-HT2C receptor binding activity, Ki
[5] = class symbols, read-out: h-5-HT2A Ki
[6] = human serotonin 5-HT2C receptor binding, [3H]-Mesulergine, read-out: h-5-HT2C Ki

SMILES	Ki [1, 3] [nM]	Ki [2, 4] [nM]	inhibition at 3 μmol/L (hERG channel (IKr)) [%]	Ki [1, 5] [nM]	Ki [2, 6] [nM]
CC(C)CNc1ccc(CNC(=O)N(Cc2ccc(F)cn2)[C@H]2CCNC[C@H]2F)cc1 [Compound I-129]	0.85	1.51	31.4		
CCCOc1ccc(CNC(=O)N(Cc2ccn(C)c2)[C@H]2CCN(C)C[C@H]2F)cc1 [Compound I-141]			49.3		
Cc1cc(CN(C(=O)NCc2ccc(OCC(C)C)cc2)[C@H]2CCNC[C@H]2F)nn1C [Compound I-133]			6.6		
CCCOc1ccc(CNC(=O)N(Cc2ccn(C)c2)[C@H]2CCNC[C@H]2F)cc1 [Compound I-134]	0.475	3.2	31.2		
CC(C)COc1ccc(COC(=O)N(Cc2ccc(F)cn2)C2CCN(C)CC2)cc1 [Compound I-042]	1.15	2.31			
Cc1cnc(CN(C(=O)NCc2ccc(OCC(C)C)cc2)C2CCN(C)CC2)cn1 [Compound I-078]				10 to 100	> 100
CCCOc1ccc(CNC(=O)N(Cc2ccn(C)n2)C2CCNCC23CC3)cc1 (racemic) [Compound I-107]				< 10	10 to 100
CN1CCC(N(Cc2ccc(F)cn2)C(=O)NCc2ccc(OCC(F)(F)F)cc2)CC1 [Compound I-095]				< 10	< 10
CC(C)COc1ccc(CNC(=O)N(Cc2ccn(C)c2)[C@H]2CCNC[C@H]2F)cc1 [Compound I-124]	0.69	2.22			
Cc1ccc(CNC(=O)N(Cc2ccc(F)cn2)C2CCN(C)CC23CC3)cc1 (racemic) [Compound I-100]				< 10	10 to 100
COc1ccc(CNC(=O)N(Cc2ccc(F)cn2)C2CCN(C)CC2)cc1 [Compound I-043]	2.52	55.7			
CC(C)COc1ccc(CNC(=O)N(Cc2ncccc2F)[C@@H]2CCN(C)C[C@@H]2F)cc1 (racemic) [Compound I-069]				10 to 100	> 100
Cc1ccc(CNC(=O)N(Cc2ccc(F)cn2)C2CCNCC23CC3)cc1 (racemic) [Compound I-101]				< 10	10 to 100
CC(C)COc1ccc(CNC(=O)N(Cc2ccc(F)cn2)C2CCN(C)C3(CC3)C2)cc1 (racemic) [Compound I-136]	8.02	148			
CC(C)COc1ccc(CNC(=O)N(Cc2cc3ccccc3cn2)C2CCN(C)CC2)cc1 [Compound I-037]	0.654	28.2			
CC(C)COc1ccc(CNC(=O)N(Cc2ccc(F)cn2)C2CCNCC2(F)F)cc1 (racemic) [Compound I-091]				< 10	< 10
CN1CCC(N(Cc2ccc(F)cn2)C(=O)NCc2ccccc2O)CC1 [Compound I-076]	62	263			
CC(C)COc1ccc(CNC(=O)N(Cc2cc(CF)n(C)n2)[C@H]2CCN(C)C[C@H]2F)cc1 [Compound I-146]	1.94	4.96			
CCCOc1ccc(CNC(=O)N(Cc2cc(C)n(C)n2)[C@@H]2CCN(C)CC23CC3)cc1 [Compound I-127]				> 100	> 100
CC(C)COc1ccc(CC(=O)N(Cc2ccc(F)cn2)C2CCN(C)CC2)cc1 [Compound I-068]	6.52	49.9			
CC(C)COc1ccc(CNC(=O)N(Cc2ccc(F)cn2)[C@H]2CCNC[C@H]2F)cc1 [Compound I-115]				< 10	< 10
CCCOc1ccc(CNC(=O)N(Cc2ccn(C)n2)[C@H]2CCNC[C@H]2F)cc1 [Compound I-122]				< 10	10 to 100

SMILES	Ki [1, 3] [nM]	Ki [2, 4] [nM]	inhibition at 3 μmol/L (hERG channel (IKr)) [%]	Ki [1, 5] [nM]	Ki [2, 6] [nM]
COCc1ccc(CNC(=O)N(Cc2ccc(C)cn2)C2CCN(C)CC2)cc1 [Compound I-130]	15.3	348			
CC(C)COc1ccc(CNC(=O)N(Cc2ccn(C)n2)C2CCNCC23CC3)cc1 (racemic) [Compound I-090]				< 10	< 10
COc1ccc(CNC(=O)N(Cc2cc(C)n(C)n2)C2CCN(C)CC23CC3)cc1 (racemic) [Compound I-104]				< 10	< 10
CC(C)COc1ccc(CNC(=O)N(Cc2ncccc2F)[C@@H]2CCNC[C@@H]2F)cc1 (racemic) [Compound I-073]				10 to 100	> 100
CC(C)COc1ccc(CNC(=O)N(Cc2cn(C)c3ccccc23)C2CCN(C)CC2)cc1 [Compound I-079]				> 100	> 100
CC(C)COc1ccc(CNC(=O)N(Cc2ccc(F)cn2)[C@@H]2CCN(C)C[C@@H]2F)cc1 [Compound I-085]	23.8	96.2			
Cc1cc(CN(C(=O)NCc2ccc(OCC(C)C)cc2)C2CCN(C)CC2)nn1C [Compound I-096]				< 10	10 to 100
Cc1ccc(CNC(=O)N(Cc2ccc(F)cn2)[C@H]2CCN(C)CC23CC3)cc1 [Compound I-120]				< 10	< 10
Cc1cc(CN(C(=O)NCc2ccc(OCC(C)C)cc2)C2CCN(C)CC23CC3)nn1C (racemic) [Compound I-094]				< 10	< 10
CCCOc1ccc(CNC(=O)N(Cc2cc(C)n(C)n2)[C@H]2CCN(C)CC23CC3)cc1 [Compound I-126]	1.92	1.09			
CC(C)COc1ccc(CNC(=O)N(Cc2ccc(F)cn2)[C@H]2CCN(C)C[C@H]2F)cc1 [Compound I-103]				< 10	< 10
COc1ccc(COC(=O)N(Cc2ccn(C)c2)C2CCN(C)CC2)cc1 [Compound I-106]				< 10	< 10
C=Cc1ccc(CNC(=O)N(Cc2ccc(F)cn2)C2CCN(C)CC2)cc1 [Compound I-083]				< 10	10 to 100
CC(C)COc1ccc(CNC(=O)N(Cc2ccn(C)c2)[C@@H]2CCN(C)C[C@@H]2F)cc1 (racemic) [Compound I-108]				< 10	< 10
CC(C)COc1ccc(CNC(=O)N(Cc2cc3c(cn2)OCCO3)C2CCN(C)CC2)cc1 [Compound I-072]	219	617			
CN1CCC(N(Cc2ccc(F)cn2)C(=O)NCc2ccc(Br)cc2)CC1 [Compound I-082]	3.74	28.8			
CN1CCC(N(Cc2ccc(F)cn2)C(=O)NCc2ccc(C3CC3)cc2)CC1 [Compound I-125]				< 10	10 to 100
CC(C)COc1ccc(CNC(=O)N(Cc2ccc(F)c3cccnc23)C2CCN(C)CC2)cc1 [Compound I-070]				< 10	10 to 100
CC(C)COc1ccc(CNC(=O)N(Cc2ccc(Cl)cn2)C2CCN(C)CC2)cc1 [Compound I-009]	0.291	7.92			
CC(C)COc1ccc(CNC(=O)N(Cc2ncc(F)cc2O)C2CCN(C)CC2)cc1 [Compound I-080]				10 to 100	10 to 100
CCCOc1ccc(CNC(=O)N(Cc2cc(C)n(C)n2)[C@H]2CCN(C)C[C@H]2F)cc1 [Compound I-139]	2.93	11.1	14.2		
CCc1ccc(CNC(=O)N(Cc2ccc(F)cn2)C2CCN(C)CC2)cc1 [Compound I-116]	1.45	12.2			

Source: patent US12527775B2 (priority 2020, dated 2026)
